# Values quoted from earlier work as cited in patent US20120289568A1, “COMBINATIONS OF OXYBUTYNIN AND SALIVARY STIMULANTS FOR THE TREATMENT OF OVERACTIVE BLADDER” (THERAVIDA, INC., priority 2011, published 2012).
# Settings: 5 mg of pilocarpine
compound,measurement,value
CC[C@@H]1C(=O)OC[C@@H]1Cc1cncn1C [pilocarpine],time of maximum saliva output after administration,about 30 minutes
